In this experiment the test system is voltage operated calcium channels (P- and L-type), rat synaptosomes. Kind of experiment: 45Ca influx into rat synaptosomes under depolarized conditions. The following applies: depolarization induced 45Ca uptake, rat cortex synaptosomes. The experiment is classed as biochemical, rat (male Wistar). The text has this: A high influx of calcium from extracelluar compartments into neurons is seen after opening of voltage operated calcium channels. Such opening of calcium channels may be induced by depolarization of neuronal membranes. A crude synaptosome preparation contains small vesicles surrounded by neuronal membranes, and it is possible to study an opening of the voltage operated calcium channels in such a preparation. In the below described test influx of ^45 Ca into rat synaptosomes is studied under depolarized conditions. The effect of test substances on the depolarization induced calcium uptake can thus be studied.
The compounds of the present invention which potently block the calcium influx of up to 20 to 40% in this test are believed to be blockers of predominantly the P-type of calcium channels and the compounds of the present invention, which at somewhat higher concentrations block the calcium influx more completely or totally, are believed to be both P- and L-type calcium channel blockers, or predominantly L-type of calcium channel blockers.
The cerebral cortex from a male Wistar rat is homogenized in 20 ml ice cold 0.32M saccharose. In the following steps the temperature is kept at 0° C. to 4° C. The homogenate is centrifuged at 1,000×g for 10 minutes and the supernatant recentrifuged for 20 minutes at 18,000×g. The obtained pellet is resuspended in 0.32M saccharose (10 ml per g of original tissue). Aliquots of 0.05 ml of the hereby obtained synaptosome suspension are added to glass tubes containing 0.625 ml of a NaCl buffer (136 mM NaCl, 4 mM KCl, 0.35 mM CaCl2, 1.2 mM MgCl2, 20 mM Tris HCl, 12 mM glucose, pH 7.4) as well as 0.025 ml of different test substances in 48% ethanol. These tubes are pre-incubatedfor 30 minutes on ice and thereafter for 6 minutes at 37° C. ^45 Ca uptake is initiated by addition to above glass-tubes of 0.4 ml ^45 CACl2 (specific activity: 29-39 Ci/g; […]). […] The radioactivity on the filters are measured by liquid scintillation spectrometry. […]

The IC50 is the concentration that gives 50% inhibition. `FC(F)(F)c1ccc2c(c1)ncn2-c1cccc(-c2ccsc2)c1` [1-[3-(3-thienyl)phenyl-5-trifluoromethyl]-benzimidazole]: the IC50 is 3.4 µM. The result for `Fc1ccc2c(c1)ncn2-c1ccc(I)cc1` [1-(4-iodophenyl)-5-fluoro-benzimidazole] reads 7 µM; that for `Nc1cccc(-c2cccc(-n3cnc4cc(C(F)(F)F)ccc43)c2)c1` [1-[3-(3-aminophenyl)-phenyl]-5-trifluoromethyl-benzimidazole], 14 µM.

These data come from patent US5360809A, “Imidazole compounds and their use as calcium channel blockers” (NeuroSearch A/S, priority 1992, dated 1994).
